The text below walks through data of patent US9944600B2, “Piperidine derivatives for GPR119 agonist” (CHONG KUN DANG PHARMACEUTICAL CORP., priority 2012, dated 2018).

For assay [1], the target named is T1, human GPR119 receptor (Homo sapiens, UniProt Q8TDV5).
T1 construct: host or cells: GeneBLAzer T-Rex GPR 119 CHO-K1 DA cells (CHO-K1)
T1 sequence (Q8TDV5 1-335): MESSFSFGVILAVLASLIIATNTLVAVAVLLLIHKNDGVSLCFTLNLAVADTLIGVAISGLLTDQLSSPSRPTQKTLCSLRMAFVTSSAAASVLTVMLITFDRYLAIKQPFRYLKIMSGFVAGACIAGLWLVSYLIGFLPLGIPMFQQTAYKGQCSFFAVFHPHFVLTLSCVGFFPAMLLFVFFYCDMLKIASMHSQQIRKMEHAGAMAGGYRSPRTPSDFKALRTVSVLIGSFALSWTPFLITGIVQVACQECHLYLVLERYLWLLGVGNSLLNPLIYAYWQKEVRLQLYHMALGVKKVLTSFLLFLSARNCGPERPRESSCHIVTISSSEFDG
The assay is described as follows: Activity test for human GPR119 receptor (GeneBLAzer T-Rex GPR 119 CHO-K1 DA cells, fluorescence reporter). Format: cell-based. Conditions: 5 hours treatment, ratio to vehicle control well; for activity at 0.1 µM / activity at 1 µM / activity at 10 µM / % Activation: human GPR119 CHO-K1 reporter cells; for activity at 0.1 µM / activity at 1 µM / activity at 10 µM: read-out: % Activation. The method, then: As a human GPR119 receptor expression cell for this test, the cell line “GeneBLAzer™ T-Rex GPR 119 CHO-K1 DA cells” that is commercially available from Invitrogen, was used. The cell was incubated in the DMEM media containing 1% dialyzed fetal bovine serum etc. The cell incubator was kept at constant temperature and constant humidity of 37° C., 5% CO2.
The human GPR119 receptor expressing cell was used to this test. Each of test compounds was added to be final concentrations of 0.1, 1, 10 μM in 96 well and tested in duplicate. A fixed amount of cell was added to each well of 96 well separately, and then treated with the test compound for 5 hours. After treatment of color development agent for 2 hours, the fluorescence value was determined with plate reader. To the luminous wavelength of control well, which was not treated with the agonist sample, but in which only a vehicle (i.e., cell) was contained, the ratio of the luminous wavelength of test well, which was treated with the agonist sample, was calculated, and then converted to obtain % value.
All the results were expressed as mean±SD, and each test groups and the control group were compared using student's t-test to adjudge the effects of each test groups.

Assay [2] has as its target T2, GPR 119 Receptor (Mus musculus, UniProt Q7TQP3).
T2 construct: from tissue; host or cells: whole animal: male C57/6J Jms mice (normal) or diet induced obesity C57BL/6J mice
T2 sequence (Q7TQP3 1-335): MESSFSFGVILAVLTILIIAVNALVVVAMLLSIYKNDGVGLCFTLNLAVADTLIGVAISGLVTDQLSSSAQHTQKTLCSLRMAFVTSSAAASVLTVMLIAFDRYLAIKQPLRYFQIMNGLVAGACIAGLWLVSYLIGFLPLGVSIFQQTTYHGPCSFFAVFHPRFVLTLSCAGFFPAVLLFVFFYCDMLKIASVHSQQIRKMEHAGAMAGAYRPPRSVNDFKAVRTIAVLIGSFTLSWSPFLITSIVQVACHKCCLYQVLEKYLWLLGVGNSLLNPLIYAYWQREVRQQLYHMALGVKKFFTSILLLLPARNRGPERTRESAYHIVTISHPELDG
Nature of the assay: Glucose tolerance test in normal mouse (animal test of activity for the GPR 119 receptor). Format: in vivo. Conditions: normal male C57/6J Jms mice; for Decrease % of AUC at 10 mg/kg: oral glucose 2 g/kg, whole blood glucose AUC; for Decrease % of AUC (drop effect in blood glucose level): 10 mg/kg, oral 20% glucose 2 g/kg, whole blood glucose cAUC. The method, then: Male C57/6J Jms mice of 6-7 weeks of age were fasted for 16 hours before the start of glucose tolerance test. The experimental animal groups consist of: • A. a vehicle group (10% EtOH, 20% HPBCD in saline), • B. a positive control group administered with MBX-2982 (10 mg/kg), and • C. test groups administered with compound 516, 581, 586, 612, 640, 644 or etc. (10 mg/kg).
Before compound administration, that is, at 0 hour, whole blood glucose level was determined using a Glucometer (ACCU-CHEK, Roche). At 30 minutes after compound administration, whole blood glucose level was determined once again, and 20% glucose (2 g/kg/10 mL) was administered orally. Whole blood glucose level was determined at 20, 40, 60, 80, and 120 minutes after 20% glucose administration. Area under the curve (AUC) of whole blood glucose level was obtained using GraphPad Prism 5.0. The effect of glucose tolerance was adjudged with the corrected area under the curve (cAUC), on which the base value of glucose area under the curve was excluded.

Take `NC(=O)[C@@H]1CCCN1C(=O)c1ccc(-c2ccc(OCC3CCN(CC4(C(F)(F)F)CC4)CC3)nc2)cc1` [Compound 586, (S)-1-(4-(6-((1-((1-(trifluoromethyl)cyclopropyl)methyl)piperidin-4-yl)methoxy)pyridine-3-yl)benzoyl)pyrrolidine-2-carboxamide]: the activity at 0.1 µM in assay [1] (test compound conc. 0.1 μM) came out at 213%. In addition, the activity at 1 µM in assay [1] (test compound conc. 1 μM) worked out at 310%. In addition, the activity at 10 µM in assay [1] (test compound conc. 10 μM) was determined as 379%. In addition, the “Decrease % of AUC at 10 mg/kg” value in assay [2] is 34%.

Consider `CC(C)(F)CN1CCC(COc2ccc(-c3ccc(C(=O)N4CCC[C@H]4C(N)=O)c(F)c3)cn2)CC1` [Compound 658, (S)-1-(2-fluoro-4-(6-((1-(2-fluoro-2-methylpropyl)piperidin-4-yl)methoxy)pyridine-3-yl)benzoyl)pyrrolidine-2-carboxamide], for which, in assay [1] (test compound conc. 0.1 μM), the activity at 0.1 µM stood at 289%. In assay [1] (test compound conc. 1 μM), the activity at 1 µM is 248%. The activity at 10 µM in assay [1] (test compound conc. 10 μM) turned out to be 311%. In addition, the “Decrease % of AUC at 10 mg/kg” value in assay [2] was determined as 38%.

On to `CC(C)(F)CN1CCC(COc2ccc(-c3ccc(C(=O)N4CC[C@@H](O)C4)c(F)c3)nc2)CC1` [Compound 768, (R)-(2-fluoro-4-(5-((1-(2-fluoro-2-methylpropyl)piperidin-4-yl)methoxy)pyridine-2-yl)phenyl)(3-hydroxypyrrolidine-1-yl)methanone], for which the activity at 0.1 µM in assay [1] (test compound conc. 0.1 μM) is 162%. In assay [1] (test compound conc. 1 μM), the activity at 1 µM is 260%. For the same compound, the activity at 10 µM in assay [1] (test compound conc. 10 μM) was determined as 313%. Moreover, in assay [2], the “Decrease % of AUC at 10 mg/kg” value was 40%.

Take `CC(C)(F)CN1CCC(COc2ccc(-c3ccc(C(=O)N4CCC[C@@H](O)C4)cc3)cc2)CC1` [Compound 612, (R)-(4′-((1-(2-fluoro-2-methylpropyl)piperidin-4-yl)methoxy)biphenyl-4-yl)(3-hydroxypiperidin-1-yl)methanone]: in assay [2], the “Decrease % of AUC at 10 mg/kg” value came to 50% and the “Decrease % of AUC (drop effect in blood glucose level)” value stood at 50%.

On to `NC(=O)[C@@H]1CCCN1C(=O)c1ccc(-c2ccc(OCC3CCN(CC4(C(F)(F)F)CCC4)CC3)nc2)cc1` [Compound 581, (S)-1-(4-(6-((1-((1-(trifluoromethyl)cyclobutyl)methyl)piperidin-4-yl)methoxy)pyridine-3-yl)benzoyl)pyrrolidine-2-carboxamide], for which, in assay [1] (test compound conc. 0.1 μM), the activity at 0.1 µM is 254%. Also, the activity at 1 µM in assay [1] (test compound conc. 1 μM) came to 344%. Also, the activity at 10 µM in assay [1] (test compound conc. 10 μM) is 273%. Moreover, in assay [2], the “Decrease % of AUC at 10 mg/kg” value was determined as 50%.

On to `CCc1cnc(N2CCC(c3nc(COc4ccc(-n5cnnn5)cc4)cs3)CC2)nc1` [MBX-2982, reference compound], for which the maximum % activation in assay [1] (human GPR119 receptor expressing cell, test concentrations 0.1, 1, 10 μM) is listed as 200%. Also, the “% Activation” value in assay [1] (test compound conc. 0.1 μM) worked out at 180%; in assay [1] (test compound conc. 1 μM), 206%; in assay [1] (test compound conc. 10 μM), 200%. For the same compound, the “Decrease % of AUC at 10 mg/kg” value in assay [2] is reported as 24%. The “Decrease % of AUC (drop effect in blood glucose level)” value in assay [2] is recorded as 24%.

`CN(C)C(=O)c1ccc(-c2ccc(OCC3CCN(CC(C)(C)F)CC3)cc2)cc1` [Compound 516, 4′-((1-(2-fluoro-2-methylpropyl)piperidin-4-yl)methoxy)-N,N-dimethylbiphenyl-4-carboxamide]: the activity at 0.1 µM in assay [1] (test compound conc. 0.1 μM) came to 185%. In assay [1] (test compound conc. 1 μM), the activity at 1 µM is 243%. Further, the activity at 10 µM in assay [1] (test compound conc. 10 μM) was 289%. In addition, in assay [2], the “Decrease % of AUC at 10 mg/kg” value is given as 43%.

In the case of `CC(C)(F)CN1CCC(COc2cnc(-c3ccc(C(=O)N4CCCC[C@@H]4C(N)=O)c(F)c3)nc2)CC1` [Compound 1037, (R)-1-(2-fluoro-4-(5-((1-(2-fluoro-2-methylpropyl)piperidin-4-yl)methoxy)pyrimidin-2-yl)benzoyl)piperidin-2-carboxamide], the activity at 0.1 µM in assay [1] (test compound conc. 0.1 μM) is 223%. Moreover, in assay [1] (test compound conc. 1 μM), the activity at 1 µM amounted to 478%. In assay [1] (test compound conc. 10 μM), the activity at 10 µM came out at 439%. Also, in assay [2], the “Decrease % of AUC at 10 mg/kg” value amounted to 42%.

Regarding `CC(C)(F)CN1CCC(COc2cnc(-c3ccc(C(=O)N4CCC[C@H]4C(N)=O)c(F)c3)nc2)CC1` [Compound 1032, (S)-1-(2-fluoro-4-(5-((1-(2-fluoro-2-methylpropyl)piperidin-4-yl)methoxy)pyrimidin-2-yl)benzoyl)pyrrolidine-2-carboxamide], the activity at 0.1 µM in assay [1] (test compound conc. 0.1 μM) came to 321%. Moreover, the activity at 1 µM in assay [1] (test compound conc. 1 μM) is 459%. The activity at 10 µM in assay [1] (test compound conc. 10 μM) stood at 430%. In addition, the “Decrease % of AUC at 10 mg/kg” value in assay [2] is reported as 31%.

Consider `CC(C)(F)CN1CCC(COc2cnc(-c3ccc(C(=O)N4CCC[C@H]4C(N)=O)cc3)cn2)CC1` [Compound 950, (S)-1-(4-(5-((1-(2-fluoro-2-methylpropyl)piperidin-4-yl)methoxy)pyrazine-2-yl)benzoyl)pyrrolidine-2-carboxamide], for which, in assay [1] (test compound conc. 0.1 μM), the activity at 0.1 µM is 191%. Also, the activity at 1 µM in assay [1] (test compound conc. 1 μM) turned out to be 232%. For the same compound, the activity at 10 µM in assay [1] (test compound conc. 10 μM) stood at 307%. Also, the “Decrease % of AUC at 10 mg/kg” value in assay [2] came out at 39%.

With `CC(C)(F)CN1CCC(COc2cnc(-c3ccc(C(=O)N4CCC[C@H]4C(N)=O)c(F)c3)cn2)CC1` [Compound 944, (S)-1-(2-fluoro-4-(5-((1-(2-fluoro-2-methylpropyl)piperidin-4-yl)methoxy)pyrazine-2-yl)benzoyl)pyrrolidine-2-carboxamide], the activity at 0.1 µM in assay [1] (test compound conc. 0.1 μM) turned out to be 180%. In addition, the activity at 1 µM in assay [1] (test compound conc. 1 μM) was found to be 291%. In addition, the activity at 10 µM in assay [1] (test compound conc. 10 μM) was determined as 310%. In addition, the “Decrease % of AUC at 10 mg/kg” value in assay [2] is reported as 32%.

For the compound `CC(C)(F)CN1CCC(COc2ccc(-c3ccc(C(=O)N4CC[C@H](O)C4)c(F)c3)cc2)CC1` [Compound 640, (S)-(3-fluoro-4′-((1-(2-fluoro-2-methylpropyl)piperidin-4-yl)methoxy)biphenyl-4-yl)(3-hydroxypyrrolidine-1-yl)methanone], the “Decrease % of AUC at 10 mg/kg” value in assay [2] amounted to 52%.
